Holding throughout (assay): Substrate potential in transporter-transfected MDCK cells
Common to all, as to format: in vitro ADME

One data set has as its target T1, OATP1B1 (Homo sapiens, UniProt Q9Y6L6).
T1 construct: host or cells: MDCK
T1 sequence (Q9Y6L6 1-691): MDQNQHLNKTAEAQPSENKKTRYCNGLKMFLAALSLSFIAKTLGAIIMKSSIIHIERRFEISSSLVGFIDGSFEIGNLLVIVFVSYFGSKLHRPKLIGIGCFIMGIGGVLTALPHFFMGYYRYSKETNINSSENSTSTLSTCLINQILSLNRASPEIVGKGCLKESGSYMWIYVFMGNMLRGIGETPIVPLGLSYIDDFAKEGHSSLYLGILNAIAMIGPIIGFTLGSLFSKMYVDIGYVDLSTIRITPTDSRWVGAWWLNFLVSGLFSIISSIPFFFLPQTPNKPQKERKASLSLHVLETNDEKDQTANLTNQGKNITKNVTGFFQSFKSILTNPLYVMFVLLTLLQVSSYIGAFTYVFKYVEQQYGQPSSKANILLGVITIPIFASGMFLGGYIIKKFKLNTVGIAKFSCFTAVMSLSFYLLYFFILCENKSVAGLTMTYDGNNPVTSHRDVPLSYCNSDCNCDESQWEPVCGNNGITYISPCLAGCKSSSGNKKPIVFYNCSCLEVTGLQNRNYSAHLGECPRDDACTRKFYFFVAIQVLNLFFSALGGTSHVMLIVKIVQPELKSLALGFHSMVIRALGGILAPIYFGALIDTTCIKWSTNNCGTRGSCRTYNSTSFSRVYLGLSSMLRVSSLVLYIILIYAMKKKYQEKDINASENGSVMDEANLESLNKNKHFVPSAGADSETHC
The protocol: (§1) The uptake of a probe substrate of each transporter was conducted in parallel with the test article in separate wells of the same batch of vector control and transporter-transfected cells. Cells were incubated at 37 °C with 5% CO2 with 500 μL of dosing solution for different periods of time.

Another data set addresses T2, MATE1 (Homo sapiens, UniProt Q96FL8).
T2 construct: host or cells: MDCK
T2 sequence (Q96FL8 1-570): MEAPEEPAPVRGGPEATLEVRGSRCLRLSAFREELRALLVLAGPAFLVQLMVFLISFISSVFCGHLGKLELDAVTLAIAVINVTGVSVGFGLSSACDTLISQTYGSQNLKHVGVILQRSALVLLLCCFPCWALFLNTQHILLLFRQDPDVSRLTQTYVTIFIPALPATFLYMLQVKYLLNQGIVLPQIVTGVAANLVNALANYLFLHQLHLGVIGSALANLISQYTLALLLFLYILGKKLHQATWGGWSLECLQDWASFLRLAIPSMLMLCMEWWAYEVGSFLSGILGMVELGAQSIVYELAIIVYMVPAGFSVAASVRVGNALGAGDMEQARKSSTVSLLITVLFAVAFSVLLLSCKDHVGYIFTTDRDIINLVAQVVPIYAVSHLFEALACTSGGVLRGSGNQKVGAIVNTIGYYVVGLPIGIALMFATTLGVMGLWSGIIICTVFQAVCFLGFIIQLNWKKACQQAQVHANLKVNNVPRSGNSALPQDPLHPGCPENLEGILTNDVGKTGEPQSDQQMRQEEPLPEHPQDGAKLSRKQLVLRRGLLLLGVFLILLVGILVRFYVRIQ
The protocol: as §1

For another data set, the target named is T3, OAT1 (Homo sapiens, UniProt Q4U2R8).
T3 construct: host or cells: MDCK
T3 sequence (Q4U2R8 1-563): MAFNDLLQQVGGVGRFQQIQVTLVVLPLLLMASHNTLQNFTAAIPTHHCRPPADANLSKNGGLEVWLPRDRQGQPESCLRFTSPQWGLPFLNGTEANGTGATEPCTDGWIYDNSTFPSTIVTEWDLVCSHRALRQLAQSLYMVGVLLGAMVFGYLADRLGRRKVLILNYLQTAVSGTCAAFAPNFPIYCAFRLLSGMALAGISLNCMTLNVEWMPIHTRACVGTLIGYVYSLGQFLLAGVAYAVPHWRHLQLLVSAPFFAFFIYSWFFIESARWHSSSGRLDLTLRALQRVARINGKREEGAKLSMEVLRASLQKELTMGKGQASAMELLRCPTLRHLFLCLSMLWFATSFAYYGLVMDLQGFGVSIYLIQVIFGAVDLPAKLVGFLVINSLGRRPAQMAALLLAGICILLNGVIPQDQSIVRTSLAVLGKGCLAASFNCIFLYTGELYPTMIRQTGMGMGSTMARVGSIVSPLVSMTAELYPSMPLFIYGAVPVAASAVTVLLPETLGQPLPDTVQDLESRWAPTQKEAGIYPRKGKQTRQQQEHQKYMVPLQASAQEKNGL
The protocol: as §1

The next data set has as its target T4, OAT3 (Homo sapiens, UniProt Q8TCC7).
T4 construct: host or cells: MDCK
T4 sequence (Q8TCC7 1-542): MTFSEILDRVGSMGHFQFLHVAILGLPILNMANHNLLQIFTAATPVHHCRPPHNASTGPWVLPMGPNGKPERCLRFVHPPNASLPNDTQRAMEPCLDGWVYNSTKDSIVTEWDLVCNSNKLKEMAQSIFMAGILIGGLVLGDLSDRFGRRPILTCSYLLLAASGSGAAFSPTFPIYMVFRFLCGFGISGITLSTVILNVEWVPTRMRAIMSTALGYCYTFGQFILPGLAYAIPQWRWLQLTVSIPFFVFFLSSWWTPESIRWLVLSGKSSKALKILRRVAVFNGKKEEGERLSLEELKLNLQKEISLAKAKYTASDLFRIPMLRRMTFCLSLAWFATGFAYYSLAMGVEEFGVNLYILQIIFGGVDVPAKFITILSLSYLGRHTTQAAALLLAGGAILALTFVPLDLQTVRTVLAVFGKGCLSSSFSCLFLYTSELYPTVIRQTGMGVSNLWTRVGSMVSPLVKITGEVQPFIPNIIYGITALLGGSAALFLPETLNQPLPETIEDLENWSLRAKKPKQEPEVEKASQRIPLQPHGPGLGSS
As for the experimental part: as §1

Some results are limits rather than exact numbers.

As to `NC[C@H]1OB(O)c2c(OCCCO)cccc21` [EBO, Epetraborole], the Influx ratio on OATP1B1, at MATE1, at OAT1 and at OAT3 was < 2 each time. The “as a Substrate” value at OATP1B1, on MATE1, on OAT1 and at OAT3 was “No” in each case.
As to `NC[C@H]1OB(O)c2c(OCCC(=O)O)cccc21` [M3], the Influx ratio on OATP1B1, at MATE1, at OAT1 and at OAT3 was < 2 in each case. Also, the “as a Substrate” value at OATP1B1, at MATE1, at OAT1 and at OAT3 was “No” in each case.

The values above are taken from publication PMC10818931, “In Vitro Evaluation of Drug–Drug Interaction Potential of Epetraborole, a Novel Bacterial Leucyl-tRNA Synthetase Inhibitor” (Pharmaceuticals, 2024).
